Results as given in patent publication US20050142230A1, “Pharmic activity and manufacturing method of the production produced by six kinds of plant compound” (priority 2003, published 2005).

Tested on: male white mice
Test: Hypnosis effect taking orally (lost righting reflex half minute)
Format: in vivo
Conditions: for The sleep animals: 30 mg/kg, n=25
Procedure: The male white mice (weighing 18-22 g) were divided into groups at random. Every group had twenty five. Experimental group douched the stomach with the compound by 0.08, 0.3, 0.4 ml/10 g, pentobabital sodium 30 mg/kg, the control group gave the same volumn saline. Then put them into the constant temperature infant cabinet at 37° C. We observed the mumber of the mice sleep. The standard was the half minute continous lost righting reflexs (table 3 was the result). […] The compound wares had hypnosis effect.

Q: What does the source list for `CCCC(C)C1(CC)C(=O)N=C([O-])NC1=O.[Na+]` (centres unmarked) [Pentobabital sodium]?
A: The sleep animals (5′): 20TT; The sleep animals (30′): 25TT; The sleep animals (60′): 21TT; The sleep animals (90′): 13; Hypnosis effect (in words) (30 ml/kg as printed in text, mice): let them all sleep
